Series [1] relates to Trypanosoma cruzi. Kind of series: Antitrypanosomal activity against Trypanosoma cruzi INC-5. In kind it is functional.
For series [2], the system named is Trypanosoma cruzi. As to the kind of experiment: Antitrypanosomal activity against Trypanosoma cruzi NINOA. In kind it is functional.
Series [3] is described as follows: Selectivity index, ratio of EC50 for Trypanosoma cruzi epimastigotes to LC50 for african green monkey Vero cells. The conditions noted are these: Vero cells versus Trypanosoma cruzi epimastigotes, read-out: Selectivity Index. In kind it is toxicity.
For series [4], the system named is Trypanosoma cruzi. As to the kind of experiment: Antitrypanosomal activity against Trypanosoma cruzi epimastigotes assessed as parasite growth inhibition at 50 uM. The format is functional. Set-up: scale not given: the % may be the effect or the level left.
The test system of series [5] is Trypanosoma cruzi. As to the kind of experiment: Antitrypanosomal activity against Trypanosoma cruzi epimastigotes. In kind it is functional, organism-based.
A short description of series [6]: Cytotoxicity against african green monkey Vero cells. In kind it is toxicity, cell-based. The conditions noted are these: chlorocebus sabaeus, read-out: LC50 (the source's name).
The subject of series [7] is Leishmania infantum. Kind of series: Antileishmanial activity against Leishmania infantum amastigotes MCAN/ES/2001/UCM-10 infected in J774.2 cells. In kind it is functional, organism-based. The conditions noted are these: MCAN/ES/2001/UCM-10, J774.2.
The nature of series [8]: Cytotoxicity against mouse J774.2 cells. In kind it is toxicity, cell-based.
Series [9] is described as follows: Selectivity index, ratio of CC50 for […] J774.2 cells to IC50 Leishmania infantum MCAN/ES/2001/UCM-10. In kind it is toxicity. The conditions noted are these: J774.2 cells versus Leishmania infantum MCAN/ES/2001/UCM-10; read-out: Ratio CC50/IC50.
A short description of series [10]: Selectivity index, ratio of CC50 for […] J774.2 cells to IC50 Leishmania braziliensis MHOM/BR/1975/M2904. The format is toxicity. The conditions noted are these: read-out: Ratio CC50/IC50.
Series [11] concerns Leishmania braziliensis. Kind of series: Antileishmanial activity against Leishmania braziliensis MHOM/BR/1975/M2904 infected in J774.2 cells. In kind it is functional, organism-based. The conditions noted are these: MHOM/BR/1975/M2904, J774.2.
The subject of series [12] is Trypanosoma cruzi. As to the kind of experiment: Antitrypanosomal activity against Trypanosoma cruzi Y. In kind it is functional, organism-based.
Series [13] has as its system Trypanosoma cruzi. Kind of series: Antitrypanosomal activity against Trypanosoma cruzi X10/7-Silvio. In kind it is functional, organism-based.
Series [14] in a line: Cytotoxicity against CHO cells. The format is toxicity, cell-based, Cricetulus griseus. The conditions noted are these: chinese hamster.
Series [15] can be described thus: Selectivity index, ratio of CC50 for […] J774.2 cells to IC50 Leishmania donovani LCR-L 133 LRC. In kind it is toxicity. The conditions noted are these: J774.2 cells versus Leishmania donovani LCR-L 133 LRC; read-out: Ratio CC50/IC50.
Series [16] deals with Leishmania donovani. As to the kind of experiment: Antileishmanial activity against Leishmania donovani LCR-L 133 LRC infected in J774.2 cells. In kind it is functional, organism-based.
In series [17] the test system is Trypanosoma cruzi. As to the kind of experiment: Antitrypanosomal activity against Trypanosoma cruzi Tulahuen. In kind it is functional, organism-based.
In series [18] the test system is Trypanosoma cruzi. Kind of series: Antitrypanosomal activity against Trypanosoma cruzi Brener. In kind it is functional, organism-based.
Series [19] in a line: Selectivity index, ratio of CC50 for rat L6 cells to IC50 for Leishmania donovani. The format is toxicity. The conditions noted are these: L6 cells versus Leishmania donovani, read-out: Ratio CC50/IC50.
For series [20], the system named is Leishmania donovani. Kind of series: Antileishmanial activity against Leishmania donovani axenic amastigotes. The format is functional, organism-based.
The nature of series [21]: Cytotoxicity against rat L6 cells. In kind it is toxicity, cell-based.
For series [22], the system named is Trypanosoma cruzi. As to the kind of experiment: Antitrypanosomal activity against Trypanosoma cruzi LQ. The format is functional, organism-based.

This is an account of results in ChEMBL document CHEMBL5223105, “Nitro compounds against trypanosomatidae parasites: Heroes or villains?” (Bioorg Med Chem Lett, 2022).

In brackets after ≈: the same amount, converted by molar mass.

Regarding `O=[N+]([O-])c1ccccc1/C=N/NS(=O)(=O)c1ccccc1`, the LC50 in series [1] was 15.2 µM; in series [2], 218 µM.

Regarding `O=[N+]([O-])c1ccc(/C=N/N=c2\[nH]nc(Cl)c3ccccc23)o1`, in series [3], the selectivity ratio came out at 8.82. For the same compound, the Activity in series [4] was found to be 48%. Moreover, the EC50 in series [5] came to 6.3 µM. Further, the CC50 in series [6] was 100 µM.

`CNCCOCCn1nc(OCc2ccccc2)c2cc([N+](=O)[O-])ccc21` registered an IC50 in series [7] of 9.1 µM. Further, the CC50 in series [8] was 197 µM. Further, the selectivity ratio in series [9] is 21.6.

Take `COc1nn(CCN)c2ccc([N+](=O)[O-])cc12`: the selectivity ratio was determined as 60 in series [10] and 140 in series [9]. The IC50 in [11] came to 8.1 µM; in [7], 3.5 µM. This compound came in with a CC50 in series [8] of 489 µM.

In series [12], `Cn1cnc([N+](=O)[O-])c1-c1nnc(N)[nH]1` gave an IC50 of 38.6 µM.

Consider `O=C(Cn1cccc1[N+](=O)[O-])Nc1cccc(C(F)(F)F)c1`, for which, in series [13], a half-maximal effect (EC50) was put at 3.6 µM. In series [14], this compound registered a CC50 of 156 µM.

`CCC(=O)N(/N=C/c1ccccc1[N+](=O)[O-])S(=O)(=O)c1ccccc1`: the LC50 in [1] came to 0.61 µM; in [2], 68.1 µM.

Turning to `O=[N+]([O-])c1ccc2c(c1)c(Oc1ccccc1)nn2CCBr`, the selectivity ratio in [15] turned out to be 120. This compound also yielded an IC50 in series [16] of 1.6 µM. The compound also displayed a CC50 in series [8] of 588 µM.

In the case of `O=[N+]([O-])c1ccc(/C=N/NS(=O)(=O)c2ccccc2)cc1`, the LC50 in series [1] was found to be 4.68 µM; in series [2] it was 26.3 µM.

Turning to `Cn1c([N+](=O)[O-])cnc1-c1nnc(NC(=O)C(F)(F)F)s1`, the figures for the IC50 in [17] and in series [18] were 34.2 µM and 31.2 µM, respectively.

In series [13], `O=C(Cn1cccc1[N+](=O)[O-])Nc1ccccc1` displayed an EC50 of 6 µM. In series [14], the CC50 is 262 µM.

In series [7], `Cn1nc(OCc2ccccc2)c2cc([N+](=O)[O-])ccc21` gave an IC50 of 12.1 µM. In addition, in series [8], the CC50 is 179 µM. Further, the selectivity ratio in [9] worked out at 14.8.

With `COc1cc(CSc2nnc(-c3ncc([N+](=O)[O-])n3C)s2)cc(OC)c1OC`, the selectivity ratio in series [19] came to 240. The IC50 in series [20] came to 0.081 µg/mL (≈ 0.191 µM). For the same compound, the CC50 in series [21] worked out at 19.4 µg/mL (≈ 45.9 µM).

With `CC(=O)Nc1nnc(-c2ncc([N+](=O)[O-])n2C)s1`, the IC50 in series [17] was 7.46 µM; in series [18], 7.44 µM; in series [22], 7.44 µM.

In the case of `O=[N+]([O-])c1ccc(/C=N/N=c2\[nH]nc(Cl)c3ccccc23)s1`, the selectivity ratio in series [3] amounted to 5.14. The Activity in [4] is on record as 54%. In series [5], this compound gave an EC50 of 7.2 µM. Moreover, in series [6], the CC50 is 37 µM.
